For test [1], the target named is Intestinal-type alkaline phosphatase (Homo sapiens, UniProt P09923). The test is described as follows: inhibition of human intestinal alkaline phosphatase – biochemical, dose response (AID 488876). Type of test: functional.
Test [2] deals with T1, RNA-binding protein pos-1 (Caenorhabditis elegans, UniProt G5EF15).
T1 sequence (G5EF15 whole entry): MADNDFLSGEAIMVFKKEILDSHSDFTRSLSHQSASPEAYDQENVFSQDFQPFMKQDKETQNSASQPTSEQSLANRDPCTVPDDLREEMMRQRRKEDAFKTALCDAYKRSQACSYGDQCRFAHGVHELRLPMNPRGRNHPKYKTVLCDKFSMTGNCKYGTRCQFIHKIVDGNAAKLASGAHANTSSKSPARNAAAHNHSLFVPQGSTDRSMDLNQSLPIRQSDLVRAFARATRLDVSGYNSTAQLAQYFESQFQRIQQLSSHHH
The test is described as follows: disruptors of C. elegans POS-1 RNA interaction – biochemical, fluorescence polarization, dose response (AID 1964).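 Note: purified POS-1 fused to maltose binding protein made in E. coli; potency of compounds blocking POS-1 binding to fluorescent RNA.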 In general terms: In fluorescence polarisation assays a small probe gives low polarisation when free and higher when bound to something large.

Another test addresses T2, Aspartyl aminopeptidase (Plasmodium falciparum 3D7, UniProt Q8I2J3).
T2 sequence (Q8I2J3 whole entry): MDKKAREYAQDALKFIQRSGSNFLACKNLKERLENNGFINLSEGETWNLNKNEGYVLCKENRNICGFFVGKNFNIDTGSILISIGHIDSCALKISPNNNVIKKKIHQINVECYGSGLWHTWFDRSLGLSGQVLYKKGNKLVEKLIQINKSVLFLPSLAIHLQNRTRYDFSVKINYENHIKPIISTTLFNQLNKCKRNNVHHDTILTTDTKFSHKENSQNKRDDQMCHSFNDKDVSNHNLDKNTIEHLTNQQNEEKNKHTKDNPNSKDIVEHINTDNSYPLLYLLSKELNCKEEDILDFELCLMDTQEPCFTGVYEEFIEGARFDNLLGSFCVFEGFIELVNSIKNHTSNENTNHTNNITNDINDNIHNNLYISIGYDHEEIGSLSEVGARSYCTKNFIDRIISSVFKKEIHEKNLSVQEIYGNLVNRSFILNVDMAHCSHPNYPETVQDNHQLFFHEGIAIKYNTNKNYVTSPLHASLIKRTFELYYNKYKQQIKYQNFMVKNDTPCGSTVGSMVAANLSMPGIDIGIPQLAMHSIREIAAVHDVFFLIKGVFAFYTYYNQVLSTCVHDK

Test [3] addresses Intestinal-type alkaline phosphatase (Mus musculus, UniProt P24822). The test is described as follows: PubChem AID 488785. The format is functional.
Test [4] has as its target T3, Alkaline phosphatase, tissue-nonspecific isozyme (Homo sapiens, UniProt P05186).
T3 sequence (P05186 whole entry): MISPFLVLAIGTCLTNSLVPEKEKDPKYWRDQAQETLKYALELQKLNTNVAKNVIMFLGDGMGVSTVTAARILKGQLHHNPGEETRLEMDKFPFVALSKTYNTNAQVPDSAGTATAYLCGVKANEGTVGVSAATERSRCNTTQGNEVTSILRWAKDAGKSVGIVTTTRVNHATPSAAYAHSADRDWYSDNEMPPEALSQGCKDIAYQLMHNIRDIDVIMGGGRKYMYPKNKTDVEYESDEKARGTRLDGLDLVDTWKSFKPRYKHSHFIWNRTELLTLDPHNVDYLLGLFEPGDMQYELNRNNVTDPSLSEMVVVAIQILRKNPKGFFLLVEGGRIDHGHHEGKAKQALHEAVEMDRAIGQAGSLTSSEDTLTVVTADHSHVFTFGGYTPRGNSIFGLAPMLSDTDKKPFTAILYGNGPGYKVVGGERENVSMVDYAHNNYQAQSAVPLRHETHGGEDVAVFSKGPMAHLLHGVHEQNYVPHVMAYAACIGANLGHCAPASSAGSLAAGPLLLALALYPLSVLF
The test is described as follows: TNAP enzyme inhibition by screening hits, dose response, selectivity assay for mouse IAP inhibitor project, biochemical, human TNAP, uHTS hits (AID 488906). Type of test: functional.

The target in test [5] is T4, Zinc finger protein mex-5 (Caenorhabditis elegans, UniProt Q9XUB2).
T4 sequence (Q9XUB2 whole entry): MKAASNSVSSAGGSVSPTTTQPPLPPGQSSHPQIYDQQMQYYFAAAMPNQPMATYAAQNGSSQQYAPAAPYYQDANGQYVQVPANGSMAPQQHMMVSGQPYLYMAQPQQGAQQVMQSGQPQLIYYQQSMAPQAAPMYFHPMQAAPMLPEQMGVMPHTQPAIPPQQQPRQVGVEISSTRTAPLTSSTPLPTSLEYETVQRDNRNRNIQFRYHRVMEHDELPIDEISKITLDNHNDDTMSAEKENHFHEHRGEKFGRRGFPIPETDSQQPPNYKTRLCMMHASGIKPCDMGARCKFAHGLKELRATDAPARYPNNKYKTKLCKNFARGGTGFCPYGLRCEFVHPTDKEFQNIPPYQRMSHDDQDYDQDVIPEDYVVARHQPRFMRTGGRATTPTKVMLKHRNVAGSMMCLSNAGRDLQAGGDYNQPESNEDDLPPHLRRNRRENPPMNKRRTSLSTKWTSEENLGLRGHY
The test is described as follows: potency of MEX-5 RNA-binding blockers – biochemical, C. elegans, fluorescence polarization, dose response (AID 1960).

A further test deals with Large T antigen (Simian virus 40, UniProt P03070). The format is functional, Betapolyomavirus macacae.
A further test concerns the target Procathepsin L (Homo sapiens, UniProt P07711).
In test [6] the target is T5, Carboxy-terminal domain RNA polymerase II polypeptide A small phosphatase 1 (Homo sapiens, UniProt Q9GZU7).
T5 sequence (Q9GZU7 whole entry): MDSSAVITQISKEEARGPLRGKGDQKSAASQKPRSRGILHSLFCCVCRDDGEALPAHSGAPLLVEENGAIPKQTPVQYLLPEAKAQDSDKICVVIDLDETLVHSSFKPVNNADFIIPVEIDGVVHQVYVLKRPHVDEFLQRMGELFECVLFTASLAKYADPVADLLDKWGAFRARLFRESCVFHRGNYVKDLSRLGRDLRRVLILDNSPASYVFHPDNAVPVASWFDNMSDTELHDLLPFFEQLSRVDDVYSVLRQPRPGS
The test is described as follows: CTDSP1 inhibitors, concentration-response, biochemical, absorbance readout, ultra-high-throughput screen actives (AID 540297). The format is functional.

Test [7] has as its target FAD-linked sulfhydryl oxidase ALR (Homo sapiens, UniProt P55789). The test is described as follows: ALR-catalysed DTT oxidation blockers – biochemical, H2O2 detection, luminescence, cherry-pick, dose response (AID 493248).
For another test, the target named is Genome polyprotein (dengue virus type 2, UniProt P29990). The test is described as follows: flavivirus cap methylation enzyme inhibition – biochemical, confirmation dose response, primary screen (AID 588689). The format is functional.
The target in test [8] is T6, Heat shock factor protein 1 (Mus musculus, UniProt P38532).
T6 sequence (P38532 whole entry): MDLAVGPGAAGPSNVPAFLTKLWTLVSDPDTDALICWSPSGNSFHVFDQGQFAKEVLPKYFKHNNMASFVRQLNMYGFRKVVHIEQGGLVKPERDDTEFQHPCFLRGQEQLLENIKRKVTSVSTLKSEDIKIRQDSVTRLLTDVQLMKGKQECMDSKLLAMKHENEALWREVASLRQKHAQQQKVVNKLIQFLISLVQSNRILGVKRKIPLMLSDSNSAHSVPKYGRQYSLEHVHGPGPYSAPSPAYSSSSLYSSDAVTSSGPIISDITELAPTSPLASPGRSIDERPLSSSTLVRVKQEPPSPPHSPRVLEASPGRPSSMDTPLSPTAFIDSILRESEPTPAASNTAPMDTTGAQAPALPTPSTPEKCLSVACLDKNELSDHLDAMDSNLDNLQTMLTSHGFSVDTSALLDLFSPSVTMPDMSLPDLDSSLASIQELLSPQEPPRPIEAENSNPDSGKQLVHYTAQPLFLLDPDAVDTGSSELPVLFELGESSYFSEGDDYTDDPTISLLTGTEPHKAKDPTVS
The test is described as follows: enhancement of HSF1-driven luciferase signal – cell-based, NIH3T3, luminescence, dose retest, confirmation (AID 435004).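 Note: stress induced by proteasome inhibitor MG132 added 30 min after compound; luciferase reporter driven by HSF1 response element in NIH3T3 cells; actives raise luminescence as potentiators of the MG132 stress response.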 The format is functional.

In another test the target is SUMO-activating enzyme (Homo sapiens, UniProt Q9UBT2). The test is described as follows: blockers of UBC9-mediated SUMO conjugation – biochemical, AlphaScreen, SUMOylation inhibitor project, confirmation (AID 2018). Type of test: functional. For orientation: In Alpha technology, singlet oxygen from a donor bead excites a nearby acceptor bead.
The target of a further test is Tumor necrosis factor (Homo sapiens, UniProt P01375). The test is described as follows: analog potency on TNFa NF-kB signaling – cell-based, revised, SAR follow-up (AID 2337). The format is functional.
In test [9] the target is T7, Nucleotide-binding oligomerization domain-containing protein 1 (Homo sapiens, UniProt Q9Y239).
T7 sequence (Q9Y239 whole entry): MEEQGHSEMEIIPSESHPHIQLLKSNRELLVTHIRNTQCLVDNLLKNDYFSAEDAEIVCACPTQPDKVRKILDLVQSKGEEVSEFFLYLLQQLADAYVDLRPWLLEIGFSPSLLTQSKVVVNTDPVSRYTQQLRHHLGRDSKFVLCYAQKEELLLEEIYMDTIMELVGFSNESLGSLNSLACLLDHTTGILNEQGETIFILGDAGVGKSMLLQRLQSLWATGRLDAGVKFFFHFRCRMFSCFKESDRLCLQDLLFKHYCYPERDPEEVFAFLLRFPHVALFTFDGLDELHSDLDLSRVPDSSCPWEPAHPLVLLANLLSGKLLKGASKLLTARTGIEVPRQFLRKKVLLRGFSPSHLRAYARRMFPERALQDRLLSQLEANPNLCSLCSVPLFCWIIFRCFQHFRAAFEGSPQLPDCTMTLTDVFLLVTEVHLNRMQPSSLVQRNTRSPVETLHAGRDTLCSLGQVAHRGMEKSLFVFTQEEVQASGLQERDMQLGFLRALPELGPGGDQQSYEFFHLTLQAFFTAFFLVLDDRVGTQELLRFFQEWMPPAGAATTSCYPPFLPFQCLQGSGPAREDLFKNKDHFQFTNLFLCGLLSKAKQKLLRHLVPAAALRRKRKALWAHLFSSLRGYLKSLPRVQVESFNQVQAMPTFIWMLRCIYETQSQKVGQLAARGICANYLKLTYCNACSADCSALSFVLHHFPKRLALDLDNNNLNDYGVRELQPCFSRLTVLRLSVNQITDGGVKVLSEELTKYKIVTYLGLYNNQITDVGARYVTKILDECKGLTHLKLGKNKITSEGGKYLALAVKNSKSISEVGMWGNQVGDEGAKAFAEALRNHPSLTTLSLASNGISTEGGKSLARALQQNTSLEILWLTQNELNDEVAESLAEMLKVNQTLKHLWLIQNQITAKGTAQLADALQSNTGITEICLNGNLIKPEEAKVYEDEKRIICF
The test is described as follows: blockers of NOD1 pathway activity – revised, SAR follow-up (AID 2333). The format is functional.

In another test the test system is HEK293. The test is described as follows: cells. The settings on record: Homo sapiens.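 Note: cells exposed to compound for 14 hours overnight before viability readout.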

Activity calls are given as the source filed them. A value given as a limit tells only on which side of the number the result lay.

As usually defined, the IC50 is the concentration needed to halve the response being measured. By EC50 is commonly meant the concentration giving half of the maximal effect. The term AC50 denotes the concentration giving half of the maximal activity seen.

Intestinal-type alkaline phosphatase (Homo sapiens, UniProt P09923), sequence (P09923 whole entry): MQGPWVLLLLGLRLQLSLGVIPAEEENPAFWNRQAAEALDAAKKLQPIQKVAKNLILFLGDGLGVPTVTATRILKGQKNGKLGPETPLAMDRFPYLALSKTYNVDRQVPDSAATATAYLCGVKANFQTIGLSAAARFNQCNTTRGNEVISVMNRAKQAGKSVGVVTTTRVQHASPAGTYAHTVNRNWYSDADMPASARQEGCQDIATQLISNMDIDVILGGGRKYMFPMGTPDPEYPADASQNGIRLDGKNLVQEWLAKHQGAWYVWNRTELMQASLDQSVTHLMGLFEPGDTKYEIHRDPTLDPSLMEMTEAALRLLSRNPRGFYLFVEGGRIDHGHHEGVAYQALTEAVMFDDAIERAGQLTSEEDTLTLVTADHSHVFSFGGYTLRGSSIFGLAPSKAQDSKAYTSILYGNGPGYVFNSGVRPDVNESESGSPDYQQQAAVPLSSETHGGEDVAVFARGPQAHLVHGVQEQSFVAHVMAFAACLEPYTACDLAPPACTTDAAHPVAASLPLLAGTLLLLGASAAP
Intestinal-type alkaline phosphatase (Mus musculus, UniProt P24822), sequence (P24822 whole entry): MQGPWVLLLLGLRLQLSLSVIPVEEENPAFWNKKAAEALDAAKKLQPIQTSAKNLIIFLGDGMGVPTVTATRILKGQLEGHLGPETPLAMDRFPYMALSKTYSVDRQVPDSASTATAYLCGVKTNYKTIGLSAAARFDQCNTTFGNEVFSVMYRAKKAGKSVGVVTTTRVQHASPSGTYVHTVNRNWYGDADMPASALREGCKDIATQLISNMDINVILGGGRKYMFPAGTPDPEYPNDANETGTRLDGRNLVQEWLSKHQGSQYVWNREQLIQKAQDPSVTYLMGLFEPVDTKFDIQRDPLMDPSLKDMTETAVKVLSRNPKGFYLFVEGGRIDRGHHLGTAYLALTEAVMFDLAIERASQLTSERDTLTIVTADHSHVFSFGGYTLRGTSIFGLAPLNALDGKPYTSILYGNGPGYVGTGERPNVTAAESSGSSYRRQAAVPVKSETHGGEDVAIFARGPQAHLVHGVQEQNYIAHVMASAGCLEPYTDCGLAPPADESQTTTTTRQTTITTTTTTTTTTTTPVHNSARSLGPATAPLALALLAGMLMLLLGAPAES
FAD-linked sulfhydryl oxidase ALR, sequence (P55789 whole entry): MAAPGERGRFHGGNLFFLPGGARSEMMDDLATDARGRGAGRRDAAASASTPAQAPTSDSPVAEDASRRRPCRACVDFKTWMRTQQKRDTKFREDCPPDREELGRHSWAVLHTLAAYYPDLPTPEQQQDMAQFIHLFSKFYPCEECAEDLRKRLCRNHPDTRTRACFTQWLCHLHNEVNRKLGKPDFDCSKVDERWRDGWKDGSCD
Tumor necrosis factor, sequence (P01375 whole entry, the tested form may be a part): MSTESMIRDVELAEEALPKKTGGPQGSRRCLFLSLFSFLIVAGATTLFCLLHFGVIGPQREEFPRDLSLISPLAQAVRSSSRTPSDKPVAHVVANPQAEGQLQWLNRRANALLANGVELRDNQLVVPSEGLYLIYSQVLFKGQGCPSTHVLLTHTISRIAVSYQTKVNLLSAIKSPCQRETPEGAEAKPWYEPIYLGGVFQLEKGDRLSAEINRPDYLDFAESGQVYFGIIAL
Procathepsin L, sequence (P07711 whole entry, the tested form may be a part): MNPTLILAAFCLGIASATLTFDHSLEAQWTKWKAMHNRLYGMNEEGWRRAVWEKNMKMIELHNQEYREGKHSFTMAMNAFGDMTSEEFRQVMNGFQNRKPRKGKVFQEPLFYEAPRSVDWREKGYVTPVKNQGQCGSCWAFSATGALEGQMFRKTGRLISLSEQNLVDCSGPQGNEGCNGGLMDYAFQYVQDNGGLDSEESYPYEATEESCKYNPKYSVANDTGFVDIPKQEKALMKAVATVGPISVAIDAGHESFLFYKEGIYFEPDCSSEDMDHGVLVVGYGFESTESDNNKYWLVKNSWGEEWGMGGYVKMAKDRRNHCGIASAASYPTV
Large T antigen, sequence (P03070 whole entry): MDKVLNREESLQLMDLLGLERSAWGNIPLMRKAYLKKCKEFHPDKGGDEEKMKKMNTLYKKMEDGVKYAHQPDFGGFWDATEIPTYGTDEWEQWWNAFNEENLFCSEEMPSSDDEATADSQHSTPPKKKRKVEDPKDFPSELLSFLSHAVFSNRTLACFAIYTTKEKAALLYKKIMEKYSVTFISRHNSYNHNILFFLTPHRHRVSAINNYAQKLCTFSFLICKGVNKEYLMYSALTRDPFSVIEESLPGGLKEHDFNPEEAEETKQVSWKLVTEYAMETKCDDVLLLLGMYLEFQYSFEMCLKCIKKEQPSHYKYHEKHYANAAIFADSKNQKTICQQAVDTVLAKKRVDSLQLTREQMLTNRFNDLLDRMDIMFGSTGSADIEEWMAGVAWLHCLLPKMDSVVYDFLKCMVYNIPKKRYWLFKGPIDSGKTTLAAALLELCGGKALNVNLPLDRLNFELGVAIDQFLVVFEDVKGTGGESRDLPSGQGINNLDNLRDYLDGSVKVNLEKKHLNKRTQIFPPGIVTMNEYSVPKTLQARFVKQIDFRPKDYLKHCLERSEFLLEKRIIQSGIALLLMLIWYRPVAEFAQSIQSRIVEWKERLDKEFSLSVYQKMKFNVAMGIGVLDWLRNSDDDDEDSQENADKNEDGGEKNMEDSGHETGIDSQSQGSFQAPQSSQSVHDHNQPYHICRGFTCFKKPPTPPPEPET
Genome polyprotein, sequence (P29990 2492-3391 limits assumed): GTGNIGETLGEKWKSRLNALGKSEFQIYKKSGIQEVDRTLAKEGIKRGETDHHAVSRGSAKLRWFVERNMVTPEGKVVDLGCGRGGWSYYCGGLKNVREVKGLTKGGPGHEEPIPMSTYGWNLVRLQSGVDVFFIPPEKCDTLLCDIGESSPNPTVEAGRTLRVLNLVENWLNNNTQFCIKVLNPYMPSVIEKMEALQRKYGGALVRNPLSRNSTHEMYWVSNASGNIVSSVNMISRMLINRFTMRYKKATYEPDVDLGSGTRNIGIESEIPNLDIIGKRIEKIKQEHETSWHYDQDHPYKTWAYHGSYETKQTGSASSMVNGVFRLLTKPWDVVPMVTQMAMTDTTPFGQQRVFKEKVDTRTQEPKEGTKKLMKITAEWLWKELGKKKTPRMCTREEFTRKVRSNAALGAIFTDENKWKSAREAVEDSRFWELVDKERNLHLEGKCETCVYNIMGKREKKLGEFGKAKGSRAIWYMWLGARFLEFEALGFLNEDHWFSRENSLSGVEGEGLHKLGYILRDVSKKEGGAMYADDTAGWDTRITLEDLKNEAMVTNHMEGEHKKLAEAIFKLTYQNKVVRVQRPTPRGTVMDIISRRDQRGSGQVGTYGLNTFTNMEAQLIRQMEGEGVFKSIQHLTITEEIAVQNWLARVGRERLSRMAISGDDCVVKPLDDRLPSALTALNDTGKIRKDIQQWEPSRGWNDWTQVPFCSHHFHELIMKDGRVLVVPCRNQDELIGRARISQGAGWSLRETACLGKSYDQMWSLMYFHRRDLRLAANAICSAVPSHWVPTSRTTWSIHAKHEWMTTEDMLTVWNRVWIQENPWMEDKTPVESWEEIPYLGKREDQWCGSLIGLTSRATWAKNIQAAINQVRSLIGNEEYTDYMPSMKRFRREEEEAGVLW
SUMO-activating enzyme, sequence (Q9UBE0 whole entry): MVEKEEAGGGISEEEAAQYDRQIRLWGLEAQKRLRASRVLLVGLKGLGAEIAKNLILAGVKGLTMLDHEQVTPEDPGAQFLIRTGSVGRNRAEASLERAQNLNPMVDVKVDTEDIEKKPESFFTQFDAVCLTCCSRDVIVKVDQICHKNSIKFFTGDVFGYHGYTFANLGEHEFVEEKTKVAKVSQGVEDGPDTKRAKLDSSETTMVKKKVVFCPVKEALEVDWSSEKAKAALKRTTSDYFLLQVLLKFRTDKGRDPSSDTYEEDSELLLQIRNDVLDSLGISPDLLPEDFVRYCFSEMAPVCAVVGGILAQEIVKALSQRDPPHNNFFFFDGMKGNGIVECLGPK
SUMO-activating enzyme, sequence (Q9UBT2 whole entry): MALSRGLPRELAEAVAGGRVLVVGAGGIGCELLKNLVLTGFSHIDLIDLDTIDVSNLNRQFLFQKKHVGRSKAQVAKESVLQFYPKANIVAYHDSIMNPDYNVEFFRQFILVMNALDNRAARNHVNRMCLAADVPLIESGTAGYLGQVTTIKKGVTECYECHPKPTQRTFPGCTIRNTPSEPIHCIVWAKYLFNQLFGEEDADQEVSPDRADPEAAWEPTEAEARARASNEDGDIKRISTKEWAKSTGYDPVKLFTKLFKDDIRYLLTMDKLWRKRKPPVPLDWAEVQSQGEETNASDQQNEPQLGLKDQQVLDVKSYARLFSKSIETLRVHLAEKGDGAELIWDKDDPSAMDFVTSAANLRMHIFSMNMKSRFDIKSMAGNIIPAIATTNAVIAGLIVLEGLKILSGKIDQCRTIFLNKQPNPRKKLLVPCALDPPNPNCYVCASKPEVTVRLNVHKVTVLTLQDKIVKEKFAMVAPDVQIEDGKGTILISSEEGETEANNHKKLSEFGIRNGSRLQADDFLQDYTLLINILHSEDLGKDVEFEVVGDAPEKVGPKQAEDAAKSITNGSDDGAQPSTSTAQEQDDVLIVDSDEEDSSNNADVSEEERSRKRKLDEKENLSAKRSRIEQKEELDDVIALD

For `O=[N+]([O-])c1c(O)nc(/C=C\c2ccc(O)c(O)c2)nc1O`, the IC50 was 4.34 µM (active) in [1]; 0.67 µM (active) at Aspartyl aminopeptidase; 1.04 µM (active) in [3]; 1.12 µM (active) in test [4]; 4.72 µM (active) at Large T antigen; > 59.6 µM (not active) at Procathepsin L. Besides, the IC50 in test [6] is 36.1 µM (active). Also, the EC50 in [2] was 250 µM (active); in test [5], 179 µM (active). Also, the AC50 in test [7] was 1.05 µM (active).
Take `Cc1ccc(Cl)c2c(C3=NC(=S)NC3=O)c(O)[nH]c12`: the IC50 was > 100 µM (inactive) in test [1], 0.206 µM (active) in test [3], 0.211 µM (active) in [4] and 61.5 µM (active) on Genome polyprotein. Further, the EC50 in test [2] was 14.3 µM (active); in test [5], 0.294 µM (inconclusive); in test [8], > 260 µM (inactive).
For the compound `O=C1N(c2ccc(Cl)c(Cl)c2)CN(Cc2ccccc2)CN1n1cnnc1`, on SUMO-activating enzyme, the IC50 was > 100 µM (inactive).
Take `COc1ccc(C2CC(c3ccccc3Cl)=NN2c2ccc(S(N)(=O)=O)cc2)cc1` (centres undefined): the IC50 was > 100 µM (inactive) in test [1], 6.02 µM (active) in test [3] and > 100 µM (inactive) in test [4].
Regarding `CC1Cc2cc(S(=O)(=O)N3CCN(c4ccccc4)CC3)ccc2N1C(=O)C1CC1` (centres undefined), the IC50 is 15.3 µM (active) at Tumor necrosis factor, > 20 µM (inactive) in [9] and > 20 µM (inactive) in the test on HEK293.

Source of the values: ChEMBL document CHEMBL1201862, “PubChem BioAssay data set” (2004).
